Assay results taken from US10457675B2, “Histone deacetylase inhibitors and compositions and methods of use thereof” (CHDI Foundation, Inc., priority 2014, dated 2019).
pIC50: −log10 of the molar value.

What was measured:
[1] = target: Histone Deacetylase 4 (HDAC4) catalytic domain (Homo sapiens (Human), UniProt P56524); assay: Biochemical IC50: HDAC enzymatic activity with fluorogenic substrate Boc-Lys(Tfa)-AMC
Procedure: The potency of compounds is quantified by measuring the Histone Deacetylase 4 (HDAC4) catalytic domain enzymatic activity using the fluorogenic substrate, Boc-Lys(Tfa)-AMC. The substrate is deacetylated to Boc-Lys-AMC by HDAC4. Cleavage by trypsin results in the release of the fluorophore AMC from the deacetylated substrate. The fluorescence of the sample is directly related to the histone deacetylase activity in the sample.
Stocks of 60 μL aliquots of the 10 mM compound in DMSO are prepared and stored at −20° C. From one stock aliquot of each compound to be tested and the reference compound, a 16-point serial dilution is prepared according to Table 1 using a 125 μL 16-channel Matrix multi-channel pipette (Matrix Technologies Ltd).
2 μL (200×) of each diluted solution and each control (full activity: 100% DMSO alone or full inhibition 1 mM) is stamped into V-bottomed polypropylene 384-well compound plates using either the Bravo (384-well head from Agilent) or 12.5 μL 16-channel Matrix multi-channel pipette (Matrix Technologies Ltd). […]
5 μL of each solution of 1:20 diluted compound from above is transferred to a clear bottomed, black, 384-well assay plate using the Bravo or the Janus (384-well MDT head from Perkin Elmer). […] Finally, the fluorescence is measured (Excitation: 355 nm, Emission: 460 nm) using PerkinElmer EnVision in top read mode.

[2] = system: cellular histone deacetylase enzymatic activity in Jurkat E6-1 cells; assay: Cell (Lys-TFA): cellular HDAC activity in Jurkat E6-1 cells with Boc-Lys(Tfa)-AMC; type: cell-based; settings: Boc-Lys(Tfa)-AMC substrate
Procedure: The potency of the compounds is quantified by measuring the cellular histone deacetylase enzymatic activity using the fluorogenic substrate, Boc-Lys(Tfa)-AMC. After penetration in Jurkat E6-1 cells, the substrate is deacetylated to Boc-Lys-AMC. After cell lysis and cleavage by trypsin, the fluorophore AMC is released from the deacetylated substrate only. The fluorescence of the sample is directly related to the histone deacetylase activity in the sample.
Jurkat E6.1 cells are cultured according to standard cell culture protocols in Jurkat E6.1 Growth Media (RPMI without phenol red, 10% FBS, 10 mM HEPES, and 1 mM Sodium Pyruvate). Jurkat E6.1 cells are counted using a Coulter Counter and resuspended in Jurkat E6.1 growth media at a concentration of 75,000 cells/35 μL. 35 μL or 75,000 cells is seeded into Greiner microtitre assay plates. The plates are then incubated at 37° C. and 5% CO2 while other assay components are being prepared.
Stocks of 70 μL aliquots of the 10 mM compound in DMSO are prepared and stored at −20° C. […]
5 μL of each solution of 1:20 diluted compound from above is transferred to the Greiner microtitre assay plates with 75,000 cells/well using the Bravo. […] Finally the top read fluorescence (Excitation: 355 nm, Emission: 460 nm) is measured using PerkinElmer EnVision.

[3] = system: cellular HDAC activity (Lys-Ac); assay: Cell (Lys-Ac): cellular HDAC activity; type: cell-based

Chain of Histone Deacetylase 4 (HDAC4) catalytic domain (P56524 648-1032): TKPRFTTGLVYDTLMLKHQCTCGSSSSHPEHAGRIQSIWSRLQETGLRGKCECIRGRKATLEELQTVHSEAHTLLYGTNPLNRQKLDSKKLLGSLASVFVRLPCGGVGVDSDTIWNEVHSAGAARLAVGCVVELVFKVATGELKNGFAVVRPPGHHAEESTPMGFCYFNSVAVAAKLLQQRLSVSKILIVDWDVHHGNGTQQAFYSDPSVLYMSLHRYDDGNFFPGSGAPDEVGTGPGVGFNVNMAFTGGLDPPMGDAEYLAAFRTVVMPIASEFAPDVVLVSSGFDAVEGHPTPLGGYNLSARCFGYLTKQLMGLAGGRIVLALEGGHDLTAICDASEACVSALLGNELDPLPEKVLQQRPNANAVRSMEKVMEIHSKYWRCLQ

Row | Compound | pIC50 [1] | pIC50 [2] | pIC50 [3]
1 | 5-(3-Fluoro-2-methylphenyl)-1-(4-fluorobenzyl)-N-hydroxy-4,5,6,7-tetrahydro-1H-indazole-5-carboxamide and 5-(3-fluoro-2-methylphenyl)-2-(4-fluorobenzyl)-N-hydroxy-4,5,6,7-tetrahydro-2H-indazole-5-carboxamide [Example 36] | 6.22 | 6.43 | < 4.30
2 | 5-(3-Fluoro-2-methylphenyl)-N-hydroxy-1-(2,2,2-trifluoroethyl)-4,5,6,7-tetrahydro-1H-indazole-5-carboxamide and 5-(3-fluoro-2-methylphenyl)-N-hydroxy-2-(2,2,2-trifluoroethyl)-4,5,6,7-tetrahydro-2H-indazole-5-carboxamide [Example 35] | – | 6.11 | < 4.30
3 | Cc1c(F)cccc1C1(C(=O)NO)CCc2nc(C3CC3)ncc21 (stereo in doubt) [Example 57, (R)-2-Cyclopropyl-5-(3-fluoro-2-methylphenyl)-N-hydroxy-6,7-dihydro-5H-cyclopenta[d]pyrimidine-5-carboxamide] | – | – | < 4.30
